Assay results taken from US4550186A, “Binuclear copper (II) carboxylates formed from amine-carboxyboranes” (Duke University, priority 1983, dated 1985).

Legend:
Acetyl CoA synthetase = experiment: In vitro liver enzyme study: acetyl CoA synthetase; assay type: biochemical, mouse; conditions: in vitro CF1 liver, 30 min
Protocol: (§1) In vitro enzymatic studies were determined using 10% homogenates of CF1 male mouse liver with 50-200 μM of test drugs. In vivo enzymatic studies were determined using 10% homogenates of liver from CF1 male mice obtained after administering the agents for 16 days at a dose ranging from 2.5-20 mg/kg/day intraperitoneally. The liver homogenates for both in vitro and in vivo studies were prepared in 0.25M sucrose and 0.001M (ethylenedinitrilo)tetraacetic acid. Acetyl coenzyme A synthetase and adenosine triphosphate dependent citrate lyase activities were determined spectrophotometrically at 540 nm as the hydroxylamate of acetyl coenzyme A formed after 30 min at 37° C. Mitochondrial citrate exchange was determined by the procedure of Robinson et al [Eur. J. Biochem., 216, 63 (1970)] using ^14 C-sodium bicarbonate (41 mCi/mmol) incorporated into mitochondrial ^14 C-citrate after isolating rat mitochondria (9000 g×10 min) from the homogenates. The exchanges of the ^14 C-citrate were determined after incubating the mitochondrial fraction which was loaded with labeled citrate and test drugs for 10 min. Then the radioactivity was measured in the mitochondrial and supernantant fractions in scintillation fluid and expressed as a percentage. Cholesterol side chain oxidation was determined by the method of Kritchevsky and Tepper [Artherosclerosis, 18, 93 (1973)] using (26-^14 C) cholesterol (50 mCi/mmol) and mitochondria isolated from rat liver homogenates. […] Fatty acid synthetase activity was determined by the method of Brady et al [J. Biol. Chem., 235, 3093 (1960)] using [2-^14 C] malonyl-coenzyme A (37.5 mCi/mmol) which was incorporated into newly synthesized fatty acids that were extracted with ether and counted. Acyl transferase activity was determined with glycerol-3phosphate [L-2-^3 H(N)] […] HCl and counted. Phosphatidate phosphohydrolase activity was measured as the inorganic phosphate released after 30 min from phosphatidic acid by the method of Mavis et al [J. Lipid Res., 19, 467 (1978)]. […]

HMG CoA Reductase = target: T1, HMG CoA Reductase (Mus musculus, UniProt Q01237); experiment: In vitro liver enzyme study: HMG CoA reductase; assay type: biochemical; conditions: in vitro CF1 liver
T1 construct: 10% homogenates of CF1 male mouse liver; from tissue; host or cells: CF1 male mouse liver, post-mitochondrial supernatant
T1 sequence (Q01237 1-887): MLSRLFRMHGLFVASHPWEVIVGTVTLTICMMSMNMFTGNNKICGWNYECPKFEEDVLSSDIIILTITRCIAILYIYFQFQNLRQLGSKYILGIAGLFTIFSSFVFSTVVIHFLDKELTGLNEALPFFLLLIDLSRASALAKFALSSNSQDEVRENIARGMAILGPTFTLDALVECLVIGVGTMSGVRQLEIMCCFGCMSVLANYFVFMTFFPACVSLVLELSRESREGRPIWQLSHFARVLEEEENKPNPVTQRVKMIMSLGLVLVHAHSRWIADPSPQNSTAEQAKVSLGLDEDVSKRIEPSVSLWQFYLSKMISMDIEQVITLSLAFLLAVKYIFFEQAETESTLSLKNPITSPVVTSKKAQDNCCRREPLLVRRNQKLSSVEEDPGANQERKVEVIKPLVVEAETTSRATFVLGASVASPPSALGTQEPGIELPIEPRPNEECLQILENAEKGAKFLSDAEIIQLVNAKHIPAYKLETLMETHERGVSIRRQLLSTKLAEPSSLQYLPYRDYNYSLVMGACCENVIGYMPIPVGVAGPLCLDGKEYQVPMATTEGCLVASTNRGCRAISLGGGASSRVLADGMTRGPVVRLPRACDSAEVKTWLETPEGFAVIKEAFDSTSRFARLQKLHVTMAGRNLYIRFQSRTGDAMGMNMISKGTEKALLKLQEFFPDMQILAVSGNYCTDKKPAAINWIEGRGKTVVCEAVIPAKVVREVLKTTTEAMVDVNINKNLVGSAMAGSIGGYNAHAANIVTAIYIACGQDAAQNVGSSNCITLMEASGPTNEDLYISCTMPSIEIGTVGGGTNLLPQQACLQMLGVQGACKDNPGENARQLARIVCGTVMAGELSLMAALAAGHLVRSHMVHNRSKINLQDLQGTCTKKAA
Protocol: as §1

Substance: {Cu[(CH3)3 N.BH2 CO2 ]2.(CH3)3 N.BH2 COOH} [Compound I]
- Acetyl CoA synthetase (Acetyl CoA synthetase; 50 μM): 104 ± 5 Percent Control
- Acetyl CoA synthetase (Acetyl CoA synthetase; 100 μM): 87 ± 4 Percent Control
- Acetyl CoA synthetase (Acetyl CoA synthetase; 200 μM): 84 ± 5 Percent Control
- HMG CoA Reductase (HMG CoA Reductase; 50 μM): 102 ± 8 Percent Control
- HMG CoA Reductase (HMG CoA Reductase; 100 μM): 101 ± 9 Percent Control
- HMG CoA Reductase (HMG CoA Reductase; 200 μM): 105 ± 8 Percent Control
